In brackets after ≈: the same amount, converted by molar mass.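 1) Cells in 96-well plates. 2) Compound, 48 h, 5 concentrations. 3) Linear interpolation between surrounding doses. 4) Unreached endpoint = highest concentration. GI50: concentration for 50% inhibition of growth. The concentration for full growth arrest is given as TGI.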

Some test systems named below: RXF 393 renal; A549 NSCLC; SK-MEL-2 melanoma; HCC-2998 colon; SNB-75 CNS; A498 renal; HT29 colon; NCI-H460 lung; 786-0 renal; BT-549 breast; T-47D breast.
Common to all, as to experiment: growth of human tumour cells (NCI), 48 h

As for `NC(N)=Nc1nc2ccccc2[nH]1`, the GI50 is 72.5 µg/mL (≈ 414 µM) in the assay with RXF 393 renal; 61 µg/mL (≈ 348 µM) in the assay on A549 NSCLC; 95 µg/mL (≈ 542 µM) in the assay with SK-MEL-2 melanoma; 34.1 µg/mL (≈ 195 µM) in the assay with HCC-2998 colon; 150 µg/mL (≈ 856 µM) in the assay with SNB-75 CNS; 45.8 µg/mL (≈ 262 µM) with A498 renal. For the same molecule, the GI50 was 51.3 µg/mL (≈ 293 µM) in the assay on HT29 colon and 36.5 µg/mL (≈ 209 µM) with NCI-H460 lung. The TGI in the assay on RXF 393 renal, in the assay on A549 NSCLC, with SK-MEL-2 melanoma, with HCC-2998 colon, with SNB-75 CNS and with A498 renal was above 150 µg/mL each time. The TGI in the assay on HT29 colon and in the assay on NCI-H460 lung was above 150 µg/mL throughout.
Regarding `CC[C@]12C=CCN3CCC4(c5cc([C@@]6(C(=O)OC)CC7CN(CCc8c6[nH]c6ccccc86)C[C@@H]6CCC[C@H]76)c(OC)cc5N(C)C4[C@](O)(C(=O)OC)C1OC(C)=O)C32` (some centres not stated), the TGI was 0.554 µM in the assay with RXF 393 renal; above 10 µM with 786-0 renal; above 10 µM with A549 NSCLC; above 6.89 µM in the assay on SK-MEL-2 melanoma; above 6.75 µM in the assay with HCC-2998 colon; 0.816 µM in the assay with A498 renal. Besides, the TGI in the assay on HT29 colon was above 3.12 µM; in the assay with NCI-H460 lung it was above 4.71 µM.
With `S=C1SC(c2ccc(Cl)cc2)(c2ccc(Cl)cc2)c2ccccc21`, the TGI in the assay on RXF 393 renal, in the assay with 786-0 renal, with A549 NSCLC, in the assay with HCC-2998 colon, in the assay with BT-549 breast and with SNB-75 CNS was above 100 µM throughout. Also, the TGI in the assay on A498 renal, in the assay with HT29 colon and in the assay with NCI-H460 lung was above 100 µM throughout.
As to `OCSc1nn(CO)c(=S)s1`, the TGI with RXF 393 renal was 34.3 µM; in the assay on 786-0 renal, 58.9 µM; in the assay on A549 NSCLC, above 100 µM; in the assay on SK-MEL-2 melanoma it was 45.2 µM; with T-47D breast, 66.6 µM; with HCC-2998 colon, 43.3 µM. In addition, the values for the TGI in the assay on SNB-75 CNS, in the assay on HT29 colon and with NCI-H460 lung were 67.1 µM, 75.3 µM and 54.5 µM, respectively.
With `CCNCCNC(=O)c1ccc(Br)cc1`, the TGI with RXF 393 renal, in the assay on 786-0 renal, with A549 NSCLC, with HCC-2998 colon, in the assay with BT-549 breast and in the assay with SNB-75 CNS was above 100 µM each time. Also, the TGI in the assay on A498 renal, in the assay with HT29 colon and in the assay with NCI-H460 lung was above 100 µM throughout.
As to `CCOC(=O)/C=C/c1ccccn1`, the TGI in the assay on 786-0 renal, in the assay with A549 NSCLC, in the assay with SK-MEL-2 melanoma, with HCC-2998 colon, in the assay on SNB-75 CNS and in the assay with A498 renal was above 100 µM in each case. The TGI in the assay with HT29 colon and in the assay on NCI-H460 lung was above 100 µM in each case.
As for `N#Cc1c2nc3ccccc3nc2n2ccc3ccccc3c12`, the TGI in the assay with 786-0 renal, in the assay on A549 NSCLC, in the assay with SK-MEL-2 melanoma, with HCC-2998 colon, in the assay with SNB-75 CNS and with HT29 colon was above 100 µM in each case. In addition, the TGI with NCI-H460 lung is above 100 µM.
Consider `C/C(=N/N)c1ccc2[nH]c3c(C)cc([N+](=O)[O-])c(C)c3c2c1`, for which the TGI with 786-0 renal is 22.2 µM; in the assay with A549 NSCLC, 40.6 µM; in the assay on SK-MEL-2 melanoma, 26.3 µM; in the assay on HCC-2998 colon, 31.6 µM; in the assay with SNB-75 CNS, above 100 µM; in the assay on HT29 colon, 90.1 µM. Also, in the assay with NCI-H460 lung, the TGI turned out to be 72.4 µM.
Take `COc1cc(C=O)c(-c2cc3c(cc2C=O)OCO3)c(OC)c1OC`: the TGI in the assay with RXF 393 renal is 154 µM; in the assay with 786-0 renal it was above 290 µM; in the assay with A549 NSCLC, above 290 µM; in the assay with SK-MEL-2 melanoma it was 190 µM; in the assay with HCC-2998 colon it was above 290 µM; in the assay with HT29 colon it was 186 µM. In the assay with NCI-H460 lung, this molecule displayed a TGI above 290 µM.
Consider `Cc1cc(-c2ccccc2)cc2[n+]1CC=C2`, for which the TGI with RXF 393 renal was 97.6 µM; in the assay with 786-0 renal it was above 100 µM; with A549 NSCLC, above 100 µM; in the assay on SK-MEL-2 melanoma, above 100 µM; in the assay on HCC-2998 colon, above 100 µM; in the assay with SNB-75 CNS it was above 100 µM. Also, the TGI in the assay with HT29 colon and in the assay with NCI-H460 lung was above 100 µM in each case.
As to `Cc1nn(C)c2c1C(=O)N(C)CC(=O)N2C`, the TGI with RXF 393 renal, with 786-0 renal, with A549 NSCLC, with HCC-2998 colon, in the assay on BT-549 breast and in the assay on SNB-75 CNS was above 100 µM each time. Besides, the TGI with A498 renal, in the assay on HT29 colon and with NCI-H460 lung was above 100 µM in each case.
`O=C(c1ccccc1)c1c(CNCc2ccccc2)n(C(=O)c2ccccc2)c2ccccc12`: the TGI is above 100 µM in the assay on 786-0 renal; above 100 µM in the assay on A549 NSCLC; above 100 µM in the assay on SK-MEL-2 melanoma; above 100 µM with HCC-2998 colon; 27.5 µM in the assay with SNB-75 CNS; above 100 µM in the assay with HT29 colon. In the assay with NCI-H460 lung, this molecule showed a TGI above 100 µM.
As for `O=C1C[C@H]2[C@H](c3ccc(Br)cc3)[C@H]3C(=O)c4ccccc4NC(=O)[C@@H]3[C@@]2(O)c2ccccc2N1`, the TGI is 26 µM in the assay with RXF 393 renal; 99.2 µM with 786-0 renal; above 100 µM with A549 NSCLC; 30.3 µM in the assay on HCC-2998 colon; 41.1 µM in the assay with SNB-75 CNS; 78.8 µM in the assay with A498 renal. The TGI in the assay with HT29 colon was 30.8 µM; with NCI-H460 lung it was above 100 µM.
Consider `CC[C@@]1(O)C(=O)OCc2c1cc1n(c2=O)Cc2c-1nc1ccccc1c2/C=N\NC(=O)C(C)N` (some centres not stated), for which the TGI was 9.18 µM in the assay on RXF 393 renal; 2 µM in the assay with 786-0 renal; above 26.5 µM in the assay on A549 NSCLC; above 100 µM with SK-MEL-2 melanoma; above 21.1 µM with HCC-2998 colon; above 22.4 µM in the assay on BT-549 breast. Also, the TGI with SNB-75 CNS is 4.33 µM; with A498 renal, 1.03 µM; in the assay with HT29 colon it was above 47.1 µM; with NCI-H460 lung it was 4.47 µM.
For `CCNc1ncnc2n[nH]nc12`, the TGI in the assay on RXF 393 renal, in the assay on 786-0 renal, with A549 NSCLC, in the assay with SK-MEL-2 melanoma, in the assay on T-47D breast and with HCC-2998 colon was above 100 µM each time. The TGI in the assay with SNB-75 CNS, in the assay on A498 renal and in the assay on HT29 colon was above 100 µM in each case.
In the case of `CC1=NN(C(=O)Cc2ccccc2)C(=O)/C1=C\c1ccco1`, the TGI in the assay on 786-0 renal, with A549 NSCLC, in the assay with SK-MEL-2 melanoma, with HCC-2998 colon, in the assay with SNB-75 CNS and in the assay on HT29 colon was above 100 µM throughout.

Values taken from PubChem BioAssay (NCI).
